{"source": "paper PMC4747407", "about": "(Oncotarget, 2015)", "key": {"PARP3 or PARPs 6–16": {"system": "PARP3 or PARPs 6–16", "test": "32P-NAD+ auto-PARylation selectivity screen", "format": "biochemical, human", "conditions": "32P-NAD+ auto-PARylation screen", "description": "Samples were analyzed via phosphorimaging."}, "wild type DT40 cells": {"system": "wild type DT40 cells", "test": "cells", "conditions": "DT40, 48 h, read-out: IC50, cell proliferation, wild type DT40 cells", "quoted_text": "Proliferation assays were performed in a panel of 32 isogenic DT40 cell lines, in which each line was deficient in a distinct DNA repair gene [31]. Cells were seeded and incubated with test compound at various concentrations for 2–3 days (~ 8 cell cycles). […] Each experiment was conducted in duplicate and a minimum of 3 separate experiments were performed. […] For proliferation assays cells were plated at low density in 96 well plates. […] Cell growth was assessed using the CellTiter-Glo® cell viability assay (Promega, Cat# G7573). Each experiment was conducted in duplicate and a minimum of 3 separate experiments were performed."}, "[1]": {"system": "NCI-H460 human lung cancer xenografts", "test": "NCI-H460 lung cancer xenograft model, antitumor activity", "format": "in vivo, mouse"}, "DLD-1 cells": {"system": "DLD-1 cells", "test": "Gene expression profiling of Wnt-related genes (TLDA qPCR) in DLD-1 cells", "format": "cell-based, human", "conditions": "30 μmol/L, 72 h", "description": "Gene expression profiling was performed using a custom designed TaqMan® low density array (TLDA). Total RNA was isolated from cell lines using RNeasy Mini Kit (Qiagen) and from xenograft tumor FFPE tissue using RecoverAll Total Nucleic Acid Isolation (Ambion). Human and mouse, real-time qPCR TLDAs (384-well micro fluidic card) were designed with genes selected based on their involvement in Wnt signalling (see supplementary Tables 2 and 3 for lists of genes on TLDAs). cDNA was generated from total RNA using High Capacity cDNA Reverse Transcription kit (Life Technologies) or SuperScript® VILO™ Master Mix (Life Technologies). 100 ng cDNA was combined with TaqMan® Gene Expression Master Mix (Life Technologies) for the cell lines and TaqMan® Advanced FAST Master Mix (Life Technologies) for the xenograft tissue for each port (in duplicate). TLDAs were run based on recommended cycling times for each master mix. Ct values were calculated and imported into GeneData Analyst for further analysis. To calculate the ΔCts, gene expression was normalized to several housekeeping genes. Relative fold change was calculated by comparison to the DMSO or vehicle-treated controls for each sample. A student's t-test was used to calculate P-values and hierarchical clustering used Manhattan distance and complete linkage plotting of selected significant genes to generate heat maps."}, "PARP1": {"molecular_target": "T1, PARP1 (Gallus gallus, UniProt P26446)", "T1 construct": "endogenous in cells; host or cells: DT40 cells", "T1 sequence (P26446 whole entry)": "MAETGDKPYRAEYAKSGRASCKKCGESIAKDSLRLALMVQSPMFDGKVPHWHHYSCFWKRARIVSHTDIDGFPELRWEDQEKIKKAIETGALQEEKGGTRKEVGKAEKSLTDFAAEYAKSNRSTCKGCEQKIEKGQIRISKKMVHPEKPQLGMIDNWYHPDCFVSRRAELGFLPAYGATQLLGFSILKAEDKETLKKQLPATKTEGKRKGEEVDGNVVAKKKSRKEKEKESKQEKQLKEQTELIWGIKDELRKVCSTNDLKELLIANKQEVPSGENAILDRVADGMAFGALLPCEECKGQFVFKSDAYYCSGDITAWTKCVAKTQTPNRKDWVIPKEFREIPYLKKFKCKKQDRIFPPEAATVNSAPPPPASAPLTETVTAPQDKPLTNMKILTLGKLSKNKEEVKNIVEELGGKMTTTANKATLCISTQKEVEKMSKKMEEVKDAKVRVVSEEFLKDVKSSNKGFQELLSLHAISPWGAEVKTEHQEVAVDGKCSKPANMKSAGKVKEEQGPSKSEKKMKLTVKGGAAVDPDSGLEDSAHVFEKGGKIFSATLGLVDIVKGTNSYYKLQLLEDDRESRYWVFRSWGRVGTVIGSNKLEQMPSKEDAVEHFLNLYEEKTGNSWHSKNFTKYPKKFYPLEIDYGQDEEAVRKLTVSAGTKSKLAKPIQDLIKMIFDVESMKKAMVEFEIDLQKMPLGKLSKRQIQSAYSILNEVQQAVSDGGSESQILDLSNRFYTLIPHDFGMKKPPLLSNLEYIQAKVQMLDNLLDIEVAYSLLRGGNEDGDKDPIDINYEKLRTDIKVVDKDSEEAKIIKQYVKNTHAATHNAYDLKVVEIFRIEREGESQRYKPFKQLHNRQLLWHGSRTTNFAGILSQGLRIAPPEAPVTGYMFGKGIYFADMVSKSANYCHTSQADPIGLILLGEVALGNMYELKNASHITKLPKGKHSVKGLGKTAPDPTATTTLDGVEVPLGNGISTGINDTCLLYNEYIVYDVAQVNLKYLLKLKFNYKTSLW", "test": "PARP trapping: western blot of chromatin-bound fraction of MMS-damaged DT40 cells", "format": "cell-based, avian", "conditions": "0.05% MMS, inhibitor 0.1–10 μmol/L, 30 min", "description": "Following binding of appropriate secondary antibodies labeled with IRDye® (LI-COR), image analysis and quantitation of blots was performed with Image Studio software for the LI-COR Odyssey system (version 2.1.10)."}, "[2]": {"system": "Wnt-mediated hair re-growth", "test": "Re-growth of hair after depilation in C57BL/6 mice", "format": "in vivo, mouse", "conditions": "30, 100 or 300 mg/kg oral once daily for 12 days", "description": "Re-growth of hair was monitored and recorded by photography."}, "SW480 cells": {"system": "SW480 cells", "test": "Western blot of Wnt/β-catenin pathway proteins in SW480 cells", "format": "cell-based, human", "conditions": "10 μmol/L, 24 h", "description": "SW480, DLD-1 (Wnt-dependent) or RKO (Wnt-independent) cells were plated in 6-well plates and incubated overnight. Cells were treated with E7449, olaparib or XAV939 and incubated for various time periods prior to processing by SDS PAGE and western blot analysis. […] Following binding of appropriate secondary antibodies labeled with IRDye® (LI-COR), image analysis was performed with Image Studio software for the LI-COR Odyssey system (version 2.1.10)."}, "[3]": {"conditions": "small phase 1 study; cited from earlier work"}}, "data": [{"smiles": "O=c1[nH]nc2c3c(cccc13)N=C(CN1Cc3ccccc3C1)N2", "note": "[E7449, 8-(isoindolin-2-ylmethyl)-2,9-dihydro-3H-pyridazino[3,4,5-de]quinazolin-3-one]", "values": [{"measurement": "inhibitory activity on PARP3 or PARPs 6–16", "setting": "PARP3 or PARPs 6–16", "value": "Significant inhibitory activity was not observed"}, {"measurement": "IC50", "setting": "wild type DT40 cells", "value": 3.2, "unit": "µM"}, {"measurement": "antitumor activity", "setting": "[1]", "value": "No antitumor activity"}, {"measurement": "number of Wnt-related genes with significantly altered expression", "setting": "DLD-1 cells", "value": 40, "unit": "genes"}, {"measurement": "PARP1 trapping onto chromatin", "setting": "PARP1", "value": "binding of PARP1 to chromatin in a dose responsive manner"}, {"measurement": "hair re-growth", "setting": "[2]", "value": "significantly delayed"}, {"measurement": "Cyclin D1 protein levels", "setting": "SW480 cells", "value": "modest decrease"}, {"measurement": "axin2 protein level", "setting": "SW480 cells", "value": "significant increase"}, {"measurement": "reduction of active (non-phosphorylated) β-catenin level", "setting": "SW480 cells", "value": "~ 70%"}, {"measurement": "reduction of total β-catenin level", "setting": "SW480 cells", "value": "~50", "unit": "%"}, {"measurement": "dose-limiting toxicity", "setting": "[3]", "value": "fatigue"}, {"measurement": "tolerability in cancer patients", "setting": "[3]", "value": "generally well tolerated"}]}]}
